Reference: patent US20240350488A1, “METHODS OF TREATING SWI/SNF DEREGULATED CANCERS” (Fred Hutchinson Cancer Center, priority 2023, published 2024)

Assays:
[1] = tested on: Arid1a^fl/fl mouse urothelium; assay: γH2AX and CC3 staining of Arid1a^fl/fl urothelium, A-484954 pretreatment before 9-day BBN; assay type: in vivo; conditions: Arid1a^fl/fl mice pretreated with A-484954 before a 9-day course of BBN
Description: (§1) Bladder samples were collected, fixed in 4% paraformaldehyde (PFA), dehydrated with ethanol, and embedded in paraffin wax. Paraffin blocks were sectioned (5 μm) using a rotary microtome and hematoxylin and eosin (H&E) stained. Immunohistochemistry (IHC) staining was performed after rehydrating the tissue. In brief, antigen retrieval was performed by preheating in sodium citrate buffer (pH 6.0 or pH 9) solution for 7-30 minutes at 95° C.-125° C. in a pressure cooker. Hydrogen peroxidase (Vector Laboratories) treatment was done for 5 minutes to quench endogenous peroxides. Tissue was blocked in 1% BSA for 1 hour. Primary antibodies were applied and incubated at room temperature for 1 hour in a humidified chamber followed by secondary antibody (EnVision™ system HRP-labeled polymer, Dako, K4003). Color development was achieved by applying 3,3′-diaminobenzidine (DAB) solution (Agilent Technology) for 2 to 5 minutes, depending on the primary antibody. The sections were counterstained with hematoxylin (Agilent Technology), washed, and cover-slipped using aqueous-based mounting medium (Agilent Technology). All IHC slides were scanned using Aperio ScanScope AT Turbo (Leica Biosystems). […]

[2] = molecular target: T1, eEF2K (Mus musculus, UniProt O08796); assay: IHC of phospho-eEF2 (T56) in Arid1a^fl/fl mice after eEF2K inhibitor treatment; assay type: in vivo; conditions: A-484954 10 mg/kg IP daily for 15 days
T1 construct: from tissue; host or cells: bladder urothelium of Arid1a^fl/fl mice dosed in vivo
T1 sequence (O08796 1-724): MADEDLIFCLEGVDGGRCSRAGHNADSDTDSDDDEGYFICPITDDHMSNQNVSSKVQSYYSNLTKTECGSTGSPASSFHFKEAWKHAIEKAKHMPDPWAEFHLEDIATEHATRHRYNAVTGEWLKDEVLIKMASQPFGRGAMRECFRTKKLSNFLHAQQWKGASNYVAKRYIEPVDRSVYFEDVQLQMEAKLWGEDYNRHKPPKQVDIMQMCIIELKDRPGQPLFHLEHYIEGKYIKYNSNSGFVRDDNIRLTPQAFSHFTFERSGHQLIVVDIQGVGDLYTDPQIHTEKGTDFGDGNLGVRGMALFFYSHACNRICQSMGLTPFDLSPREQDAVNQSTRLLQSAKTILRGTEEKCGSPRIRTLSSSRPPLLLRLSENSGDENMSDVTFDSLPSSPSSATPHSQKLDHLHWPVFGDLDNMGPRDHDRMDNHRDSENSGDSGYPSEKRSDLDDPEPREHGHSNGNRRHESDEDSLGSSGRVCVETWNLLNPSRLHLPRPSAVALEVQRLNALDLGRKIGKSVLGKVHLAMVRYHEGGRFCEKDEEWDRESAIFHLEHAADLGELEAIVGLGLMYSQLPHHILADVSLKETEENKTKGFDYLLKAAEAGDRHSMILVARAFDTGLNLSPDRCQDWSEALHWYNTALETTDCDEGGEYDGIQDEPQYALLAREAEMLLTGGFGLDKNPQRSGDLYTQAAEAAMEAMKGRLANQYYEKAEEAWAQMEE
Description: as §1

[3] = tested on: protein synthesis in Arid1a^fl/fl bladders; assay: In vivo puromycin incorporation assay in Arid1a^fl/fl mice after eEF2K inhibitor treatment; set-up: species or system mouse; conditions: A-484954 10 mg/kg IP daily for 15 days
Description: Immunofluorescent (IF) staining was performed in the following manner. Antigen retrieval was conducted by preheating in sodium citrate buffer (pH 6.0) for 30 minutes at 95° C. in a pressure cooker. Tissue was blocked in 1% BSA solution for 2 hours or in M.O.M® blocking reagent (Vector Laboratories) for 1 hour at room temperature, followed by blocking in 1% BSA solution for 2 hours. Primary antibodies were applied overnight at 4° C. in a humidified chamber, and secondary antibodies (Alexa Fluor® 594; Alexa Fluor® 488; or Alexa Fluor® 647 (Invitrogen)) were applied for 1 hour at room temperature. All IF slides were mounted using ProLong™ gold mounting media with DAPI (Fisher Scientific, P36935). IF slides were scanned using an Aperio Scanscope FL (Leica Biosystems). The following primary antibodies were used for IF study: anti-Cytokeratin 5 (Biolegend Inc), anti-puromycin (EMD Millipore), anti-p-eEF2K (S366) (Cell Signaling Technology), anti-ARID1A (Sigma), or anti-Cytokeratin 5 (Abcam). Image analysis was done using semiautomated image analysis software (HALO, Indica Labs).
For the in vivo puromycin incorporation assay, mice were injected i.p. with 200 μL of 2.5 mM puromycin (Fisher) and euthanized after 1 hour. For in vitro puromycin incorporation assay, cells were treated with 1 μM puromycin for 30 minutes at 37° C. […]

[4] = tested on: Rasgrp1 mRNA; assay: QPCR of Rasgrp1 in Arid1a^fl/fl organoids after GSK126; assay type: cell-based, mouse; conditions: Arid1a^fl/fl cells; GSK126 12.5 μM
[5] = molecular target: T2, EZH2 (Mus musculus, UniProt Q61188); assay: H3K27me3 on the Rasgrp1 promoter in Arid1a^fl/fl organoids treated with EZH2 inhibitor; assay type: cell-based; conditions: Arid1a^fl/fl organoids treated with GSK126
T2 construct: endogenous in cells; host or cells: Arid1a^fl/fl mouse urothelial organoids
Description: CUT&Tag was performed following the published protocol, with some modifications. Briefly, cells were harvested and prepared into homogenous suspension in PBS, aliquoted with 10% DMSO and slow-frozen to −80° C. in isopropanol freezing chambers. CUT&Tag was performed with native nuclei. Cells were thawed at 37° C. for 1 minute, washed twice with PBS and centrifugation at 600×g for 3 minutes, and resuspended into ice-cold NE1 buffer (20 mM K-HEPES pH 7.9, 10 mM KCl, […], 20% Glycerol, 0.5 mM spermidine, and EDTA-free protease inhibitor). Cells were kept on ice for 10 minutes, centrifuged at 1400×g for 3 minutes using a swinging-bucket rotor, pellets were resuspended in Wash buffer (20 mM Na-HEPES pH 7.5, 150 mM NaCl, 0.5 mM spermidine, and EDTA-free protease inhibitor), nuclei were counted using Vi-CELL© Cell Viability Analyzer (Beckman Coulter) and aliquoted into 0.6 mL low-binding flip-cap tubes for CUT&Tag experiments.
500,000 nuclei were used for each CUT&Tag experiment targeting a histone posttranslational modification, while 200,000 nuclei were used for ARID1A. Bio-Mag®Plus Concanavalin A coated magnetic beads (Bangs Laboratories) were equilibrated with binding buffer (20 mM K-HEPES pH7.9, 10 mM KCl, and 1 mM each CaCl2 and MnCl2). To each sample, 10 μL of activated beads were added and held at room temperature for 5 minutes with occasional gentle mixing. […]

[6] = tested on: eEF2 phosphorylation; assay: Immunoblot of phospho-eEF2 and total eEF2 in Arid1a^fl/fl organoids +/- GSK126; assay type: cell-based, mouse
Description: Cell lysates were prepared using RIPA buffer (Fisher) containing phosphatase inhibitor (Sigma) and protease inhibitor cocktail (Sigma). The lysates were incubated on ice for 30 minutes with periodic mixing by vortex and centrifuged at 13,000×g at 4° C. for 10 minutes. The supernatants were subjected to SDS-PAGE and transferred to a PDVF membrane (Bio-Rad). Membranes were blocked with 5% milk for 1 hour at room temperature. Primary antibodies were diluted in 5% milk and incubated overnight at 4° C. Blots were incubated with horse radish peroxidase- (HRP-) conjugated secondary antibodies (goat anti-rabbit IgG (Fisher) or goat anti-mouse IgG (Fisher)) in 5% milk for 1 hour at room temperature. West Pico (Fisher) was used to detect immunoreactive bands on the blot using the ChemiDoc Touch Imaging System (Bio-Rad). […]

[7] = tested on: RASGRP1 protein; assay: RASGRP1 IF in Arid1a^fl/fl organoids after GSK126; assay type: cell-based, mouse; conditions: Arid1a^fl/fl cells treated with GSK126
Description: Organoids were fixed using 4% PFA for 2 hours at room temperature on a shaker followed by a 30-minute incubation on ice to achieve complete removal of EHS. Intact organoids were collected as a pellet after centrifugation at 1400 rpm for 5 min and washed with ddH2O. The pellet was further washed with 0.2% BSA and organoids were mixed with HistoGel™ (Epredia). The organoid and HistoGel™ suspension was centrifuged at 1400 rpm for 5 minutes and kept on ice for 30 minutes. The solidified HistoGel™ structure was stored at 4° C. until ready for processing and paraffin embedding. Organoid sections ([…]) were deparaffinized in CitriSolv™ (Fisher, 4355121) for 10 minutes and rehydrated using 100% (2×), 90% (2×) and 70% (2×) ethanol for 5 minutes each. Antigen retrieval was performed by preheating in sodium citrate buffer (pH 6.0) solution for 10 minutes at 121° C. in a pressure cooker. Organoid sections were blocked in 1% BSA solution for 1 hour followed by overnight incubation in primary antibody (anti-RASGRP1: Fisher) at 4° C. in a humidified chamber. Secondary antibody (Alexa Fluor® 594: Invitrogen) incubation was performed for 1 hour at room temperature. All slides were mounted using ProLong™ gold mounting media with DAPI (Fisher Scientific, P36935). […]

T2 sequence (Q61188 whole entry): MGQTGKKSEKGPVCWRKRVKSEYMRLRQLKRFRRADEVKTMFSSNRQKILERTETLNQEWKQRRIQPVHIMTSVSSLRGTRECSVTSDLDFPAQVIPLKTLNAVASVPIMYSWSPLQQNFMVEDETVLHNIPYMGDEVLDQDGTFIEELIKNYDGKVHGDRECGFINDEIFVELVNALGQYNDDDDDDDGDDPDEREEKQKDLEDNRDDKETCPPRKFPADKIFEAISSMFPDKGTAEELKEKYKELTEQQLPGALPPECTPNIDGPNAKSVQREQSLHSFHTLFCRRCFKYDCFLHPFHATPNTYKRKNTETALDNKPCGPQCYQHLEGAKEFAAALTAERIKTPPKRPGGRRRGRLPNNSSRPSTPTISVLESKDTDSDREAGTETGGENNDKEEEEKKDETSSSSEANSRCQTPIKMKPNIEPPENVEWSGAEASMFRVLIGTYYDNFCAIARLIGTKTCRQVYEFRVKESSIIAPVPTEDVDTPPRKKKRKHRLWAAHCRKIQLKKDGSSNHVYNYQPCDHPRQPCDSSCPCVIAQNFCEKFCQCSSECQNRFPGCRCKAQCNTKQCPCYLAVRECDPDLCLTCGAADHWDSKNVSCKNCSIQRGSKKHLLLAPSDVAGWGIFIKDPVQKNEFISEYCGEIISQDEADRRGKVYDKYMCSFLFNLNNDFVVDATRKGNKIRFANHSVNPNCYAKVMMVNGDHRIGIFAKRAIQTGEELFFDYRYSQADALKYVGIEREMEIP
T2 sequence (Q921E6 whole entry partner): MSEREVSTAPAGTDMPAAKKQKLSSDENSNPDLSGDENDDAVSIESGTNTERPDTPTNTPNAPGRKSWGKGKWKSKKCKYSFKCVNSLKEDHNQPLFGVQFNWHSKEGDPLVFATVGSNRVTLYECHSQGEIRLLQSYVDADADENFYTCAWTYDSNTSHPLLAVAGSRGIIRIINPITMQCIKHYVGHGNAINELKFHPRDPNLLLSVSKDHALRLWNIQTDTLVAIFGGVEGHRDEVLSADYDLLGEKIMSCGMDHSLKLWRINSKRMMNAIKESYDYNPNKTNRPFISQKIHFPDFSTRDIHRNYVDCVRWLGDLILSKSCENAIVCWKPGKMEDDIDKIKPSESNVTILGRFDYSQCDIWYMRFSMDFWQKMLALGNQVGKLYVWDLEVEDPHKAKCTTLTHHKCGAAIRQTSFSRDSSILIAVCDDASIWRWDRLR
T2 sequence (Q80U70 whole entry partner): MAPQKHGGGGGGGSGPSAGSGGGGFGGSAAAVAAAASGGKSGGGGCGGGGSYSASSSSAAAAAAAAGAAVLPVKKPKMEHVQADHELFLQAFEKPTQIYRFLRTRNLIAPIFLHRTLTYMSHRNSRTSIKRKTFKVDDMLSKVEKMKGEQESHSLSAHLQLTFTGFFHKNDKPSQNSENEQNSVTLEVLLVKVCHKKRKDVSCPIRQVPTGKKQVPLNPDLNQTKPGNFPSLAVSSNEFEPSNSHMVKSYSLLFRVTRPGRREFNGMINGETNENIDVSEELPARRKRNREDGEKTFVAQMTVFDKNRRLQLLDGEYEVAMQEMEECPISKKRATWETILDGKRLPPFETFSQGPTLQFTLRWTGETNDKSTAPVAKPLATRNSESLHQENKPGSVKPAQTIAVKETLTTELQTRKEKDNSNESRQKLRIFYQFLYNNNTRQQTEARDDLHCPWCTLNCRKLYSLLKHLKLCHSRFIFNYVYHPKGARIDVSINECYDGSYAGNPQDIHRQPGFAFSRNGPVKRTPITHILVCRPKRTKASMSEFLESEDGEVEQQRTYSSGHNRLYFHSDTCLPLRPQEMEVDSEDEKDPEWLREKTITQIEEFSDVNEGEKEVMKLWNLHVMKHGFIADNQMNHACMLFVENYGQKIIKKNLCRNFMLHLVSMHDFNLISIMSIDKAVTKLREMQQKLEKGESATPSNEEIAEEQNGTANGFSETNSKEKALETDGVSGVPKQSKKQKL
T2 sequence (Q60972 whole entry partner): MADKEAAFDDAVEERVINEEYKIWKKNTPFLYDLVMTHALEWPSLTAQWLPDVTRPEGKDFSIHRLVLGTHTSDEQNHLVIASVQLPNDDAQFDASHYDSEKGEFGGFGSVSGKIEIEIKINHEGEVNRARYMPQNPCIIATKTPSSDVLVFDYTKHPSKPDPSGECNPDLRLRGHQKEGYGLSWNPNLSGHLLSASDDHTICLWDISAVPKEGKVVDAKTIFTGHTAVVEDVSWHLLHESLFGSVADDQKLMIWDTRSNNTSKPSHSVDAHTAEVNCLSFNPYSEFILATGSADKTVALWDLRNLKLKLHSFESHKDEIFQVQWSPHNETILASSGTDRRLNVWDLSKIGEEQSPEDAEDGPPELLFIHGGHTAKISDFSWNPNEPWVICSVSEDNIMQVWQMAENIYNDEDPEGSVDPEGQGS

| SMILES | DNA damage (γH2AX) [1] | apoptosis (CC3) [1] | eEF2 phosphorylation (T56) [2] | protein synthesis (puromycin incorporation) [3] | Rasgrp1 mRNA levels [4] | H3K27me3 on the Rasgrp1 promoter [5] | eEF2 phosphorylation [6] | RASGRP1 protein levels [7] |
| --- | --- | --- | --- | --- | --- | --- | --- | --- |
| CCn1c(=O)c2cc(C(N)=O)c(N)nc2n(C2CC2)c1=O [A-484954] | markedly decreased | markedly decreased | attenuation of eEF2 phosphorylation | restoration of protein synthesis | – | – | – | – |
| CC[C@H](C)n1cc(C)c2c(C(=O)NCc3c(C)cc(C)[nH]c3=O)cc(-c3ccc(N4CCNCC4)nc3)cc21 [GSK126] | – | – | – | – | restored | decreased H3K27me3 | decrease in eEF2 phosphorylation | restored |
